Measurements taken from patent EP3474833B1, “CINNAMYL ALCOHOL DERIVATIVE FOR USE IN REDUCING APPETITE AND FOR GENERATING THE FEELING OF BEING FULL” (Symrise AG, priority 2016, dated 2017).

system: humane Neuroblastomazellen (SH-SY5Y, ATCC Nummer CRL-2266); assay: Serotonin release in SH-SY5Y neuroblastoma cells (Serotonin-ELISA); format: cell-based, human; conditions: SH-SY5Y-Zellen, 10 µM test substance, 5 min stimulation, Krebs-Ringer-HEPES Puffer pH 6,2; relative to 10 µM Nonivamid
Procedure: Als Zellmodell für die Ausschüttung des Neurotransmitters Serotonin werden humane Neuroblastomazellen (SH-SY5Y, ATCC Nummer CRL-2266) verwendet. Die Kultivierung erfolgt bei 37 °C und 5 % CO2-Gehalt mit einer Mischung, die zu gleichen Teilen aus Eagle's Minimum Essential Medium (EMEM) und F12 Medium (jeweils mit 10 % FBS und 1 % Penicillin/Streptomycin) besteht. Zur Bestimmung der Serotoninfreisetzung werden die Zellen mit Trypsin geerntet und nach einer Vitalitätsprüfung durch Trypanblaufärbung in definierter Zellzahl in 24-well Platten (Corning cell culture treated) ausgesät.
Nach 5-minütiger Stimulierung von 90.000 humanen Neuroblastomazellen (SH SY5Y) mit 60 µl Krebs-Ringer-HEPES Puffer, 0,1 % Ascorbinsäure, pH 6,2, mit oder ohne Zusatz von 10 µM einer der Verbindungen 1-4, , bzw. 10 µM Nonivamid als Positivkontrolle wird der Serotoningehalt mit Hilfe eines enzymbasierten Nachweisverfahrens (Serotonin-ELISA sensitiv, DLD Diagnostica, Hamburg, Deutschland) ermittelt. Tabelle 1. Serotonin-Freisetzung in SH-SY5Y-Zellen nach Stimulierung mit je 10 µM von Verbindungen nach Formel I.

| Structure (SMILES) | Serotoninfreisetzung [% der Positivkontrolle] |
| --- | --- |
| CCCCCCCCC(=O)NCc1ccc(O)c(OC)c1 [Nonivamid, N-Nonanoylvanillylamin, reference compound] | 100 % der Positivkontrolle |
| OCC=Cc1ccccc1 [Verbindung 1, Cinnamylalkohol] | 129.29 % der Positivkontrolle |
| CCC(=O)OCC=Cc1ccccc1 [Verbindung 4, Cinnamylpropionat] | 115.57 % der Positivkontrolle |
| CC(C)C(=O)OCC=Cc1ccccc1 [Verbindung 6, Cinnamylisobutyrat] | 120.69 % der Positivkontrolle |
| CC(C)CC(=O)OC/C=C/c1ccccc1 [Verbindung 7, Cinnamylisovalerianat] | 118.47 % der Positivkontrolle |
| O=C(C=Cc1ccccc1)OCC=Cc1ccccc1 [Verbindung 11, Cinnamylcinnamat] | 120.83 % der Positivkontrolle |
